Assay results reported in patent US12594282B2, “Use of small molecule compounds in the treatment of diseases mediated by lung epithelial cell injury and/or vascular endothelial cell injury” (Guangzhou Cellprotek Pharmaceutical Co., Ltd., priority 2020, dated 2026).

Assays:
[1] = tested on: LPS-induced acute lung injury; test: LPS-induced acute lung injury in rats (HE pathology, Smith score); assay type: in vivo, rat; settings: for lung injury pathological score vs LPS model group: tail vein every 6 h x4, 24 h after LPS 6.4 mg/kg
Method: Animal grouping: 60 qualified rats with uniform body weight were selected and included in the experiment, and were randomly divided into 6 groups according to body weight, 10 rats/group. The animal grouping and the drug treatment dose of each group were as follows:
Drug administration: Test drugs were administered by tail vein at 0.3 mL/100 g body weight, hydrocortisone (25 mg/kg) was administered intraperitoneally at 0.5 mL/100 g body weight; the first administration for all the test agents were performed 0.5 h before LPS administration in the model. The test drug solvent and YC-6 were intravenously injected once every 6 h for a total of 4 injections, and the hydrocortisone (HC) group was intraperitoneally injected once every 12 h for a total of 2 injections.
After the rats were weighed and anesthetized by isoflurane, they were fixed in a supine position. The hair in the skin of the neck was removed, the skin of the neck was sterilized with 75% ethanol, and incised in the middle, after which the subcutaneous tissue was bluntly separated, and the upper trachea was exposed. 8 mg/mL LPS solution was injected into the trachea with a syringe, 0.2 mL/rat, and each rat was calculated as having body weight of […], and the dose was 6.4 mg/kg. Immediately after injection, the rats were erected, shaken, and rotated to distribute the LPS solution evenly in the lungs. The skin was sutured and disinfected with iodophor.
24 h after LPS injection, the animals were anesthetized by intraperitoneal injection of 20% […] solution at a volume of 6 mL/kg body weight. After the abdominal aorta was bled till the animal was dead, the thoracic cavity was exposed, and the lung tissue was collected. The left lung was fixed in 10% paraformaldehyde solution for 48 hours, after which the coronal plane of the left lung was cross-sectioned into two equal-width upper and lower parts, and then the lower half of the left lung was cross-sectioned into two equal-width parts according to the coronal plane. The sagittal plane of the upper half of the left lung and the coronal plane of the two lower half of the left lung were embedded in a paraffin block, sectioned and stained with hematoxylin-eosin (HE).
Tissue dehydration and paraffin embedding: The tissue was taken out of the fixative and successively immersed in 50% ethanol (30 min)-70% ethanol (overnight)-80% ethanol (30 min)-90% ethanol (30 min)-95% ethanol (30 min)-absolute ethanol (2 times, 30 min each time)-xylene (2 times, 5˜10 min each time, until the sample was completely transparent)-62° C. paraffin (3 times, 1 hour each time), followed by tissue embedding. Tissue paraffin sectioning: The thickness was 3 μm, the sections were dried on a microtome, and then placed in a 37° C. oven to dry overnight, and then used for HE staining. […]

[2] = tested on: NR4A3; test: NR4A3 protein expression under OGD-R, HUVEC (Western blot, immunofluorescence); assay type: cell-based, human; settings: OGD 4 hours, restoration 24 hours, 1, 3, 10 μM given at restoration
Method: HUVEC cells were cultured in modified DMEM medium containing 10% fetal bovine serum. When the cells reached about 80% confluence, the cells were digested with 0.25% trypsin, and then pipetted evenly with modified DMEM containing 10% […]. The cell concentration was adjusted to 1×10^5 cells/mL, and the cells were seeded at 400 uL/well in a 24-well plate, and the experiment was carried out when the cells grew to about 70% confluence. RAOEC cells were cultured in high-glucose DMEM medium containing 10% fetal bovine serum, and the seeding conditions were the same as those of HUVEC. During the OGD-R injury treatment, the hypoxia workstation was set to have an oxygen concentration of 1% (1% O2, 5% CO2, 94% N2), a temperature of 37° C., and a humidity of 85%. A sugar-free DMEM medium was placed in the hypoxia workstation for pre-hypoxia for 3 hours. The medium in the culture plate was aspirated, and the plate was washed twice with preheated sugar-free DMEM medium, and 100 uL of sugar-free DMEM medium was added to each well. The culture plate was placed in the hypoxia workstation, and 300 uL of pre-hypoxic sugar-free DMEM medium was added to each well, and then the culture plate was placed in the hypoxia workstation for additional hypoxia for 4 hours. Restoration was then performed. The culture plate was taken out, and the sugar-free DMEM medium was replaced with 400 uL of normal medium containing 10% fetal bovine serum, and then the plate was placed in a 37° C. 5% CO2 cell incubator for culturing for 24 hours or a specified time period. For the cells in the normal group, it was only replaced with 400 uL of new normal medium containing 10% fetal bovine serum. […]
The cells were washed twice with pre-cooled PBS, then scraped off with a cell scraper and transferred to a 1.5 mL centrifuge tube, and centrifugation was performed at 4° C. and 1000 g for 5 minutes. […] Each protein sample was then quantified using the BCA protein quantification kit. After protein quantification, protein lysis buffer was used to adjust the protein concentration of each sample to be consistent with the protein sample with the lowest concentration, and then each protein sample was sufficiently mixed with 5× protein loading buffer at a ratio of 4:1. […]

[3] = 12, 40, 120 mg/kg/d, HE staining

C[C@@]12CCCC1C1C[C@@H](O)[C@]3(O)C[C@@H](O)CC[C@]3(C)C1CC2 (stereo partly drawn) [YC-6, 5α-androst-3β,5,6β-triol]
lung injury pathological score vs LPS model group ([1]; 12 mg/kg/d): significantly lower pathological scores | lung injury pathological score vs LPS model group ([1]; 40 mg/kg/d): significantly lower pathological scores | lung injury pathological score vs LPS model group ([1]; 120 mg/kg/d): significantly lower pathological scores | alveolar damage vs LPS model group [1, 3]: reduced alveolar damage | inflammatory cell infiltration in lung tissue vs LPS model group [1, 3]: reduced inflammatory cell infiltration | protective effect (pathological score) compared with 50 mg/kg/d hydrocortisone ([1]; low-dose group (12 mg/kg/d), P<0.05): significantly better protective effect | NR4A3 protein expression [2]: dose-dependently increase the protein expression of NR4A3
